We go through 16 compounds from ChEMBL document CHEMBL5608251, “Virtual Screening and Molecular Docking: Discovering Novel METTL3 Inhibitors” (ACS Med Chem Lett, 2024).

For experiment [1], the target named is METTL3/METTL14 (Homo sapiens) (UniProt Q86U44+Q9HCE5). The experiment is described as follows: Inhibition of METTL3/METTL14 (unknown origin) using SAM as substrate at 25 uM incubated for 360 mins by luminescence based assay relative to control. The format is protein-complex assay.
Experiment [2] has as its system PC-9. Briefly: Antiproliferative activity against human PC-9 cells assessed as inhibition of cell growth incubated for 72 hrs by CCK-8 assay. The experiment is classed as functional, cell-based. The settings on record: PC-9, 72 h.
Experiment [3] deals with NCI-H1975. Briefly: Antiproliferative activity against human NCI-H1975 cells assessed as inhibition of cell growth incubated for 72 hrs by CCK-8 assay. The experiment is classed as functional, cell-based. The settings on record: NCI-H1975, 72 h.
Experiment [4] deals with METTL3/METTL14 (Homo sapiens, UniProt Q86U44). The experiment is described as follows: Inhibition of recombinant METTL3/METTL14 (unknown origin) by radioactivity based assay. The format is protein-complex assay.
Sequence of METTL3/METTL14 (Q86U44 whole entry): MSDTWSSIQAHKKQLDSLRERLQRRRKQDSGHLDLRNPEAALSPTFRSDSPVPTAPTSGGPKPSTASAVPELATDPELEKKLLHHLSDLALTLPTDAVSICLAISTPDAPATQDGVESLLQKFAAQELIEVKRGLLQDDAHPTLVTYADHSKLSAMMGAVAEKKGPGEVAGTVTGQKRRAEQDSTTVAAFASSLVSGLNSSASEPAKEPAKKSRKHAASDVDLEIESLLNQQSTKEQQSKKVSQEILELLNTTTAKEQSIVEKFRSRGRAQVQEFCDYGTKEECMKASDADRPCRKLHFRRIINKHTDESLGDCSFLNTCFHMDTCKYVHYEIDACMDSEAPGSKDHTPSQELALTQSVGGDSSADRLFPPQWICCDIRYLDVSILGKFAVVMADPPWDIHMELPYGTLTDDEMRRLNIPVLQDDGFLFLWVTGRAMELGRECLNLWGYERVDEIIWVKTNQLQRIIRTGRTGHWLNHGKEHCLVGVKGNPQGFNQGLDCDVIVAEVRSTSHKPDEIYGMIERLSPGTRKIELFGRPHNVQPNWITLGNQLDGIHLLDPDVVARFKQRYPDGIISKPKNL
Sequence of METTL3/METTL14 (Q9HCE5 whole entry, further chain): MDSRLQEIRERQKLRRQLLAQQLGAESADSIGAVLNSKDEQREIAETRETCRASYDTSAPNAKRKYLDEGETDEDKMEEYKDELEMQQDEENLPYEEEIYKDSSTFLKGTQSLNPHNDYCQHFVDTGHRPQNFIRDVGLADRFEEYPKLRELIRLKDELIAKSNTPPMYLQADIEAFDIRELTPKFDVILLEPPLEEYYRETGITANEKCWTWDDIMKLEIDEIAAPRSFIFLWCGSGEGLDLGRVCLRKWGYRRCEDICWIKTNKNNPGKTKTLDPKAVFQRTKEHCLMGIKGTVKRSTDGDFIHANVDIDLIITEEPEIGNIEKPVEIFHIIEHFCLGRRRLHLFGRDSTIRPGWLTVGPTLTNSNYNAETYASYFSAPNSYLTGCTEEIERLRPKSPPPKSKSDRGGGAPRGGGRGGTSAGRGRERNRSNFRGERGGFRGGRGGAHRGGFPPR

For orientation: inhibition means the relative decrease from the control value, in per cent. Low values mean little suppression, high ones strong suppression. As to `O=C(CNC(=O)c1ccco1)N/N=C/c1cc(Br)cc(Br)c1OC(=O)c1cccc(F)c1`, in experiment [1], the inhibition turned out to be 35.3%.
Regarding `COc1ccc(NC(=O)CCn2ccc(=O)[nH]c2=O)c(O)c1`, the inhibition in experiment [1] was 30.5%.
`COc1ccc(NC(=O)CCn2ccc(=O)[nH]c2=O)cc1`: the inhibition in experiment [1] amounted to 22.4%.
`CCn1c(SCC(=O)Nc2ccc(C)c(F)c2)nc2c3cc(OC)ccc3n(C)c2c1=O`: the inhibition in experiment [1] is 32.1%.
`CC(=O)c1ccc(NC(=O)CSc2ncc(CO)n2Cc2ccc(F)cc2)cc1`: the inhibition in experiment [1] was determined as 3.39%.
For the compound `COc1ccc(C(=O)Nc2cccc(OCc3cc(=O)n4ccc(C)cc4c3)c2)cc1OC`, the inhibition in experiment [1] came out at 25.1%.
On to `CCn1c(N2CCCC(C(=O)Nc3ccc4[nH]c(=O)[nH]c4c3)C2)cc(=O)n(C)c1=O` (stereo not given), for which the inhibition in experiment [1] was 36.7%.
In experiment [1], `O=C(CCCn1c(SCC(=O)Nc2ccc(F)cc2)nc2c(sc3ccccc32)c1=O)NCCO` showed an inhibition of 6.31%.
In general, IC50 refers to the midpoint of a concentration-inhibition curve. As for `O=C1c2ccc(Oc3cccc(Oc4ccc5c(c4)C(=O)N(c4ccc(O)cc4)C5=O)c3)cc2C(=O)N1c1ccc(O)cc1`, in experiment [1], the inhibition was 65.6%. Further, the IC50 in experiment [2] was determined as 216 µM; in experiment [3], 180 µM.
Take `COc1ccc(-c2nc(C[S+]([O-])CC(=O)NCc3ccco3)c(C)o2)cc1` (stereo not given): the inhibition in experiment [1] stood at 32.5%.
With `COc1ccc(NC(=O)Cn2cc(C(=O)c3ccc(C)cc3)c(=O)c3cc(OC)c(OC)cc32)cc1OC`, in experiment [1], the inhibition amounted to 24.1%.
Turning to `CCOC(=O)CC(=O)CSc1nc2c(sc(=S)n2-c2ccc(C(=O)OCC)cc2)c2nc3ccccc3n12`, the inhibition in experiment [1] turned out to be 46.2%. Further, the IC50 is 213 µM in experiment [2] and 197 µM in experiment [3].
In the case of `CNC(=O)Cn1c(CO)cnc1SCC(=O)Nc1ccc(C(C)=O)cc1`, the inhibition in experiment [1] amounted to 31.1%.
The compound `O=C(CCSc1nc(-c2ccco2)cc(C(F)(F)F)n1)NCc1ccco1` gave an inhibition in experiment [1] of 36.3%.
`Nc1ncnc2c1ncn2[C@@H]1O[C@H](C[C@@H](N)CC[C@H](N)C(=O)O)[C@@H](O)[C@H]1O` [SINEFUNGIN]: the half-inhibitory concentration (IC50) in experiment [4] was determined as 2.36 µM.
The compound `CC(=O)Nc1ccc(C)cc1NC(=O)CCC1COc2ccccc2O1` (stereo not given) had an inhibition in experiment [1] of 38.9%.
